This passage reports EC50 and AC50 results from ChEMBL document CHEMBL1201862, “PubChem BioAssay data set” (2004).

Calls of active or inactive are those of the source. Cut-off read from the data, not from the text of the source, for most assays here: actives have a measured EC50 and inactives only a lower limit.

Experiment [1] is described as follows: NIH-3T3 fibroblast cytotoxicity, dose response, cytotoxicity control, cell-based, fluorescence, Alamar Blue, secondary assay (AID 2327).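 Note: NIH-3T3 mouse fibroblasts cultured with fluconazole at 8 µg/mL.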 Format: functional. Background: Alamar Blue is a resazurin reagent that responds to reducing activity.
Experiment [2] is described as follows: fluconazole-exposed Candida albicans growth modulators – fluorescence, retest, confirmation (AID 2467). It counts as functional, cell-based.
Experiment [3] addresses Serine/threonine-protein phosphatase (Candida dubliniensis (strain CD36 / CBS 7987 / NCPF 3949 / NRRLY-17841) (Yeast), UniProt B9W6M3). The experiment in a line: blockers of CaCl2-induced CDRE-lacZ signaling – S. cerevisiae, luminescence, secondary, dose response (AID 2388).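 Note: yeast reporter cells carrying a calcineurin-responsive lacZ construct stimulated with calcium chloride; luminescent beta-galactosidase reporter signal in whole cells rather than isolated phosphatase activity; potency for inhibition where a drop in reporter signal means calcineurin blockade.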 Format: functional, cell-based.
Experiment [4] deals with ATP-dependent molecular chaperone HSP82 (Candida albicans (strain WO-1) (Yeast), UniProt C4YTQ8). The experiment in a line: steroid-induced GRE reporter decrease in yeast – S. cerevisiae, luminescence, Hsp90 inhibitor project, dose response (AID 2400).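 Note: beta-galactosidase luminescence from glucocorticoid response element reporter as proxy for Hsp90 function; inhibitor potency where signal loss means Hsp90 inhibition.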 It counts as functional, cell-based.
For experiment [5], the target named is T1, RNA-binding protein pos-1 (Caenorhabditis elegans, UniProt G5EF15).
T1 sequence (G5EF15 whole entry): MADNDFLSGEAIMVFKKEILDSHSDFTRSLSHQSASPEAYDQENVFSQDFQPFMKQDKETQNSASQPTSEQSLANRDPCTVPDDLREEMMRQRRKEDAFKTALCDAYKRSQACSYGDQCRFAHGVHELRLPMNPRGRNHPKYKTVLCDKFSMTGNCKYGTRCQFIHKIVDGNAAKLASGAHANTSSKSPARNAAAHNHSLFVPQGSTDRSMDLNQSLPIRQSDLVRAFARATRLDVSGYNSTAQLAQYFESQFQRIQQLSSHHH
Put plainly: disruptors of C. elegans POS-1 RNA interaction – biochemical, fluorescence polarization, dose response (AID 1964).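 Note: purified POS-1 fused to maltose binding protein made in E. coli; potency of compounds blocking POS-1 binding to fluorescent RNA.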 On the technique in general: Polarisation of emitted light reports the rotation of a fluorescent probe.

Experiment [6] concerns the target T2, Zinc finger protein mex-5 (Caenorhabditis elegans, UniProt Q9XUB2).
T2 sequence (Q9XUB2 whole entry): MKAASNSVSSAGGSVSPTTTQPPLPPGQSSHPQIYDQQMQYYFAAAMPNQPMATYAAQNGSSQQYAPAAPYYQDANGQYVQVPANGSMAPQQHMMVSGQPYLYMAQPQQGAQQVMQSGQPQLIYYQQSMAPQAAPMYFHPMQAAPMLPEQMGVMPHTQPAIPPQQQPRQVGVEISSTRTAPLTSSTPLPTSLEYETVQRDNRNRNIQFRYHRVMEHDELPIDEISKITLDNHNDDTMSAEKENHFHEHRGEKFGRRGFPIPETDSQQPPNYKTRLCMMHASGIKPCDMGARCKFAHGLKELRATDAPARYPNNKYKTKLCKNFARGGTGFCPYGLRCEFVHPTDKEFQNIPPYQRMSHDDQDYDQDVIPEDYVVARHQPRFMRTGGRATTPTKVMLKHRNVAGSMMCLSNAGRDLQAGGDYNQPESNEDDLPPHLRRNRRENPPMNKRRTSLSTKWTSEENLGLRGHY
Put plainly: potency of MEX-5 RNA-binding blockers – biochemical, C. elegans, fluorescence polarization, dose response (AID 1960).

The target of experiment [7] is Dual specificity tyrosine-phosphorylation-regulated kinase 1A (Rattus norvegicus, UniProt Q63470). Format: biochemical, Homo sapiens.
The next experiment has as its target T3, Caspase-6 (Homo sapiens, UniProt P55212).
T3 sequence (P55212 whole entry): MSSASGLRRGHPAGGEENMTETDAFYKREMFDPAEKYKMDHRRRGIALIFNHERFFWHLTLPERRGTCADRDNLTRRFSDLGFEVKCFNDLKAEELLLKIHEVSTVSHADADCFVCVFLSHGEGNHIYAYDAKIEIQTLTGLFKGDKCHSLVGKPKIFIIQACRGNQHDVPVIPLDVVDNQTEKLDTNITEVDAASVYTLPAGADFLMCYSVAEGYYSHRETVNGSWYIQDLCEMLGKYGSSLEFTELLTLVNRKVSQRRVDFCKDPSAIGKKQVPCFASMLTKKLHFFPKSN
Put plainly: inhibition of CASP6 peptide cleavage – biochemical, VEID-R110 fluorescence, cherry-pick, dose response (AID 720632).

Experiment [8] in a line: Trypanosoma cruzi growth suppression in host cells – NIH3T3 host cells, beta-gal luminescence, confirmation (AID 2044).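 Note: intracellular parasites grown in NIH/3T3 mouse fibroblasts as host cells; luminescent beta-galactosidase reporter signal from transgenic T. cruzi replicating inside host cells; inhibitors lower the luminescence signal.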 It counts as functional, cell-based.
Experiment [9] can be described thus: NIH3T3 cell viability loss – ATP luminescence, mouse fibroblasts, counter-screen, dose response (AID 2010).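 Note: cells exposed to compound for about 90 hours before reading.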 Format: functional, cell-based. In general terms: A counterscreen serves to expose hits that act by an unwanted route or on another target.
The test system of the next experiment is INS1. Put plainly: INS-1E survival protection against cytokine death – cell-based, luminescence, retest, dose response (AID 449756).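 Note: cell death triggered by IL-1 beta plus TNF-alpha plus IFN-gamma mixture; protective hits raise ATP signal compared with cytokine alone wells.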 Format: functional. The following applies: Rattus norvegicus.
The test system of experiment [10] is A-375. The experiment in a line: MITF: Counter assay: A375 proliferation Measured in Cell-Based System Using Plate Reader - 2084-03_Inhibitor_Dose_DryPowder_Activity. [Related pubchem assays (depositor defined):AID488944]. Format: functional. The following applies: Homo sapiens.
The test system of the next experiment is HeLa. Put plainly: ATP-based viability loss in HeLa cells – cell-based, CellTiter-Glo luminescence, cherry-pick samples, cytotoxicity control for MITF activator project, dose response (AID 540259). The settings on record: Homo sapiens. It counts as functional.
The test system of experiment [11] is A-375. The experiment in a line: proliferation inhibition in MITF-low A375 cells – cell-based, cherry-pick samples, set 2, counter-screen for MITF modulator project, dose response (AID 540335). The settings on record: Homo sapiens. Format: functional.

ATP-dependent molecular chaperone HSP82, sequence (C4YTQ8 whole entry): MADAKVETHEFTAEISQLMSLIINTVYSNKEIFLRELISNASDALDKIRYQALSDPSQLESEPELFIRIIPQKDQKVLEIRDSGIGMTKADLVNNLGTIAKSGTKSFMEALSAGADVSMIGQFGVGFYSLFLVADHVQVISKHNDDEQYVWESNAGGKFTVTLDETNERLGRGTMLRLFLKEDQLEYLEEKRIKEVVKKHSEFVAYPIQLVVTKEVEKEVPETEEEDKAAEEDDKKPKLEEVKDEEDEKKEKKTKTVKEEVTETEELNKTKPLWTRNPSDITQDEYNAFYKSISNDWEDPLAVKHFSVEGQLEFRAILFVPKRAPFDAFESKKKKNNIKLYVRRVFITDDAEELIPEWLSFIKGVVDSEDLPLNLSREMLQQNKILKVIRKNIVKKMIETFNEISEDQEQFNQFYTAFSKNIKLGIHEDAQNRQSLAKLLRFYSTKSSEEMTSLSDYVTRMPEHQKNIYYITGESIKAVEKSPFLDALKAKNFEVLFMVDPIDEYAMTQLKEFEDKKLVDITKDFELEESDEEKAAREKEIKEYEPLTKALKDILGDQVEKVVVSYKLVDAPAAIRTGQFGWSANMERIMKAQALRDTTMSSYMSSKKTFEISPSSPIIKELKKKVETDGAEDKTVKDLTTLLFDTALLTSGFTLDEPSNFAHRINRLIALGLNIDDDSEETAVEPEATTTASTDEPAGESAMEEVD
Serine/threonine-protein phosphatase, sequence (B9W6M3 whole entry): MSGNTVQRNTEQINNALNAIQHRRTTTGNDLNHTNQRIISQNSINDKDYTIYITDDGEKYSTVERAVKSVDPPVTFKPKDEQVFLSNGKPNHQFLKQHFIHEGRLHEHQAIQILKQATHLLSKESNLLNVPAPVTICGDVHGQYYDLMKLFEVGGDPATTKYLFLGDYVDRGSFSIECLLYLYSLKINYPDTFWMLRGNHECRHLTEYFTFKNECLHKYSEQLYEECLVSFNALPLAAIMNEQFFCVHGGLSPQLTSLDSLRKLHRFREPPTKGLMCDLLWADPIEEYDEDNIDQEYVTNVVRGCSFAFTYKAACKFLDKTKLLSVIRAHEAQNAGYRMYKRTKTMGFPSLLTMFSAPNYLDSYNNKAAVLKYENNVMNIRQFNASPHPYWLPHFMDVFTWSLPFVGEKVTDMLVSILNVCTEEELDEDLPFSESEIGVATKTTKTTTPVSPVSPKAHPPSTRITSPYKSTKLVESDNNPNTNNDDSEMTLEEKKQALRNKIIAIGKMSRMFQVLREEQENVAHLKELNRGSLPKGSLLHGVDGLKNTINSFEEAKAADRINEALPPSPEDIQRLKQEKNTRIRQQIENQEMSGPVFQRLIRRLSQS

For `O=C(Nc1cccc(-c2cn3ccccc3n2)c1)c1cccc(Cl)c1`, the EC50 – broadly, the concentration needed to bring the measured effect to its halfway point – in experiment [1] is 11 µM (active); in [2], 1.05 µM (active); in [3] it was > 180 µM (inactive); in experiment [4], > 160 µM (inactive).
Turning to `Cc1cc(/C=N/Nc2ccc([N+](=O)[O-])cn2)c(C)n1-c1cccc(C(=O)O)c1`, the figures for the EC50 in [5] and in [6] were > 300 µM (not active) and 37.7 µM (active), respectively. Moreover, the AC50 (commonly the midpoint of the concentration-response curve, whichever way the signal moves) in experiment [7] was 8.79 µM (active); at Caspase-6, 14.4 µM (active).
Regarding `CCCCCCOC(=O)C[N+](C)(C)CCOC1CC2CCC1(C)C2(C)C` (stereo not drawn), the EC50 in experiment [1] is 23.6 µM (active); in experiment [2] it was 0.456 µM (active); in [8], 178 nM (active); in experiment [3], > 180 µM (inactive); in experiment [9] it was > 30 µM (not active); in experiment [4], 30.6 µM (active). In addition, the AC50 with INS1 was 4.16 µM (active).
In the case of `COC(=O)c1c(C)[nH]c(/C=N/Nc2ccccc2)c1C`, the figures for the AC50 in the experiment on A-375 [10], in the experiment on HeLa and in the experiment with A-375 [11] were > 35 µM (active), 103 µM (active) and > 35 µM (active), respectively.
